# Read-outs that look alike come from different tables or passages of the source.
# How the values were obtained:
# hCA I = target: T1, hCA I (Homo sapiens, UniProt P00915); test: stopped-flow CO2 hydrase assay; type: biochemical
# T1 construct: gene CA1; recombinant, obtained in-house as previously reported
# Excerpt: stopped-flow CO2 hydrase assay on hCA I
# [1] = stopped-flow CO2 hydrase assay; type: biochemical, Homo sapiens; conditions: read-out: hCA I
# C. glabrata 3 strains [2] = tested on: T2, C. glabrata 3 strains; test: microbe, parasite or virus in culture; set-up: species or system clinical Candida isolates; CLSI broth microdilution MIC, Sabouraud dextrose broth, 35 °C, visual complete growth inhibition; conditions: Nakaseomyces glabratus, 24 h, read-out: Tested Fungi (MIC Values μg/mL) / C. glabrata 3 strains
# T2 construct: 3 clinical isolates
# Protocol: (§1) The in vitro antifungal activities were determined by the broth microdilution method with sabouraud dextrose broth (BBL Microbiology Systems, Cockeysville, MD, USA), as recommended by the by the CLSI [43]. Ninety-six-well polystyrene microtitre plates containing serial dilutions of each compound were inoculated with each microorganism to yield the appropriate density (1–5 × 10^3 cells/mL) in a 100-μL final volume. Each plate included (i) fungi without the addition of the compound, (ii) just the medium, and (iii) just the compound. Topical and systemic antifungal reference drugs, clotrimazole and fluconazole, were inserted in the experiment. The plates were incubated for 24 h at 35 °C. […] Three independent experiments were performed in triplicate. The antimicrobial activity of these thiazolidinones was evaluated versus 24 clinical Gram-positive (S. aureus and S. epidermidis) and Gram-negative (E. coli and Enterobacter spp.) microorganisms. The antifungal activity of these derivatives was then tested versus 16 clinical fungal isolates belonging to the most relevant Candida spp. (C. albicans, C. tropicalis, C. parapsilosis, C. sakè, and C. glabrata). Prior to testing, each isolate was cultured on a selective medium to ensure purity and optimal growth, as previously reported. The isolates were routinely identified by the morphological aspects of colonies and by biochemical identification. The used clinical isolates were collected from specimens of patients at the ‘Azienda Policlinico Umberto I’ (Sapienza University of Rome) and were obtained from hematology/oncology and surgery departments, which also included an intensive care unit. In particular, the samples were isolated from the upper and lower respiratory tract, blood, and indwelling venous catheters; the isolates were identified by conventional methodologies. Participating subjects gave their written informed consent for this study.
# C. tropicalis 3 strains [3] = tested on: T3, C. tropicalis 3 strains; test: microbe, parasite or virus in culture; set-up: species or system clinical Candida isolates; CLSI broth microdilution MIC, Sabouraud dextrose broth, 35 °C, visual complete growth inhibition; conditions: Candida tropicalis, 24 h, read-out: Tested Fungi (MIC Values μg/mL) / C. tropicalis 3 strains
# T3 construct: 3 clinical isolates
# Protocol: as §1
# [4] = tested on: T4, C. parapsilosis 2 strains; test: microbe, parasite or virus in culture; set-up: species or system clinical Candida isolates; CLSI broth microdilution MIC, Sabouraud dextrose broth, 35 °C, visual complete growth inhibition; conditions: Lodderomyces parapsilosis, 24 h, read-out: Tested Fungi (MIC Values μg/mL) / C. parapsilosis 2 strains
# T4 construct: 2 clinical isolates
# Protocol: as §1
# [5] = tested on: T5, Candida sake C. sakè 3 strains; test: microbe, parasite or virus in culture; set-up: species or system clinical Candida isolates; CLSI broth microdilution MIC, Sabouraud dextrose broth, 35 °C, visual complete growth inhibition; conditions: Fermentozyma sake, 24 h; read-out: Tested Fungi (MIC Values μg/mL) / C. sakè 3 strains
# T5 construct: 3 clinical isolates
# Protocol: as §1
# CgNce103 = target: T6, CgNce103 (Nakaseomyces glabratus, UniProt Q6FTL6); test: stopped-flow CO2 hydrase assay; type: biochemical
# T6 construct: gene NCE103; recombinant, obtained in-house as previously reported; beta-class zinc enzyme
# T6 sequence (Q6FTL6 1-219): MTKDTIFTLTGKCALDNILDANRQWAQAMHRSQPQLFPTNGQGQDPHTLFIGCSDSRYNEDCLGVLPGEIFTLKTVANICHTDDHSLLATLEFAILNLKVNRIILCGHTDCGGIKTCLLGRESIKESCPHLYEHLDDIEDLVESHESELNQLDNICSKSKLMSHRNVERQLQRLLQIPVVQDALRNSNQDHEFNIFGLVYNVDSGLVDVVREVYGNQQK
# C. albicans 5 strains = tested on: T7, C. albicans 5 strains; test: microbe, parasite or virus in culture; set-up: species or system clinical Candida isolates; broth microdilution antifungal MIC, visual growth inhibition, CLSI; conditions: Candida albicans, 24 h, read-out: Tested Fungi (MIC Values μg/mL) / C. albicans 5 strains
# T7 construct: 5 clinical isolates
# Protocol: as §1
# hCA II = target: T8, hCA II (Homo sapiens, UniProt P00918); test: stopped-flow CO2 hydrase assay; type: biochemical
# T8 construct: gene CA2; recombinant, obtained in-house as previously reported
# Excerpt: stopped-flow CO2 hydrase assay on hCA II
# C. glabrata 3 strains [6] = tested on: T2, C. glabrata 3 strains; test: microbe, parasite or virus in culture; set-up: species or system clinical Candida isolates; broth microdilution antifungal MIC, visual growth inhibition, CLSI; conditions: Nakaseomyces glabratus, 24 h, read-out: Tested Fungi (MIC Values μg/mL) / C. glabrata 3 strains
# Protocol: as §1
# [7] = tested on: T5, Candida sake C. sakè 3 strains; test: microbe, parasite or virus in culture; set-up: species or system clinical Candida isolates; broth microdilution antifungal MIC, visual growth inhibition, CLSI; conditions: Fermentozyma sake, 24 h; read-out: Tested Fungi (MIC Values μg/mL) / C. sakè 3 strains
# Protocol: as §1
# C. tropicalis 3 strains [8] = tested on: T3, C. tropicalis 3 strains; test: microbe, parasite or virus in culture; set-up: species or system clinical Candida isolates; broth microdilution antifungal MIC, visual growth inhibition, CLSI; conditions: Candida tropicalis, 24 h, read-out: Tested Fungi (MIC Values μg/mL) / C. tropicalis 3 strains
# Protocol: as §1
# T1 sequence (P00915 2-261): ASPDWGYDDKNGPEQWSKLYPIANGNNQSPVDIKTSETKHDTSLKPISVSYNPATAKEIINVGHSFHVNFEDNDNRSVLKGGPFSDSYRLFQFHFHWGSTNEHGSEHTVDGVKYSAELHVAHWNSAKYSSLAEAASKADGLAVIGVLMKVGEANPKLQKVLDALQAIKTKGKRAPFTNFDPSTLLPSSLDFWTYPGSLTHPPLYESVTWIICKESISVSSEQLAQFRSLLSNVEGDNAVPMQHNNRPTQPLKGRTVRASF
Compound,Ki (hCA I) [µM],Ki [1] [µM],MIC (C. glabrata 3 strains [2]) [µg/mL],MIC (C. tropicalis 3 strains [3]) [µg/mL],MIC [4] [µg/mL],MIC [5] [µg/mL],Ki (CgNce103) [nM],MIC (C. albicans 5 strains) [µg/mL],Ki (hCA II) [µM],MIC (C. glabrata 3 strains [6]) [µg/mL],MIC [7] [µg/mL],MIC (C. tropicalis 3 strains [8]) [µg/mL]
O=C(N/N=C1\SCC(=O)N1c1ccccc1F)C(O)c1ccccc1 (stereo not shown) [3a],> 100,> 100,16,32,32,16,270,4 to 8,–,–,–,–
O=C(N/N=C1\SCC(=O)N1c1cccc(F)c1)C(O)c1ccccc1 (stereo not shown) [3b],> 100,> 100,16,32,32,16,480,4 to 8,–,–,–,–
O=C(N/N=C1\SCC(=O)N1c1ccc(F)cc1)C(O)c1ccccc1 (stereo not shown) [3c],> 100,–,16,32,32,16,380,4 to 8,76.7,–,–,–
O=C(N/N=C1\SCC(=O)N1c1ccccc1Cl)C(O)c1ccccc1 (stereo not shown) [3d],> 100,> 100,–,32,32,–,320,8 to 32,–,8 to 32,8 to 32,–
O=C(N/N=C1\SCC(=O)N1c1cccc(Cl)c1)C(O)c1ccccc1 (stereo not shown) [3e],> 100,–,–,32,32,–,430,8 to 32,50.3,8 to 32,8 to 32,–
O=C(N/N=C1\SCC(=O)N1c1ccc(Cl)cc1)C(O)c1ccccc1 (stereo not shown) [3f],> 100,–,–,32,16,16,510,4 to 8,62.9,4 to 8,–,–
O=C(N/N=C1\SCC(=O)N1c1ccccc1Br)C(O)c1ccccc1 (stereo not shown) [3g],> 100,> 100,–,–,8,16,10200,8 to 16,–,8 to 32,–,8 to 32
O=C(N/N=C1\SCC(=O)N1c1cccc(Br)c1)C(O)c1ccccc1 (stereo not shown) [3h],> 100,–,–,–,8,16,820,8 to 16,55.7,8 to 32,–,8 to 32
O=C(N/N=C1\SCC(=O)N1c1ccc(Br)cc1)C(O)c1ccccc1 (stereo not shown) [3i],> 100,–,–,16,16,16,870,8 to 16,47.4,4 to 8,–,–
Cc1ccccc1N1C(=O)CS/C1=N\NC(=O)C(O)c1ccccc1 (stereo not shown) [3j],–,–,–,32,16,–,–,8 to 16,–,8 to 32,8 to 32,–
Cc1cccc(N2C(=O)CS/C2=N\NC(=O)C(O)c2ccccc2)c1 (stereo not shown) [3k],> 100,–,–,32,16,–,410,8 to 32,79.3,8 to 32,8 to 32,–
Cc1ccc(N2C(=O)CS/C2=N\NC(=O)C(O)c2ccccc2)cc1 (stereo not shown) [3l],> 100,> 100,–,32,32,–,6300,8 to 32,–,8 to 32,8 to 32,–
COc1ccc(N2C(=O)CS/C2=N\NC(=O)C(O)c2ccccc2)cc1 (stereo not shown) [3m],> 100,> 100,–,32,32,–,390,8 to 32,–,8 to 32,8 to 32,–
O=C(N/N=C1\SCC(=O)N1c1ccc([N+](=O)[O-])cc1)C(O)c1ccccc1 (stereo not shown) [3n],–,–,–,32,32,–,–,8 to 32,–,8 to 32,8 to 32,–
O=C(N/N=C1\SCC(=O)N1c1cccc(C(F)(F)F)c1)C(O)c1ccccc1 (stereo not shown) [3o],> 100,–,–,32,32,–,120,16 to 32,82.8,4 to 8,4 to 8,–
CC1S/C(=N\NC(=O)C(O)c2ccccc2)N(c2cccc(F)c2)C1=O (stereo not shown) [4a],> 100,> 100,–,–,8,–,110,16 to 32,–,8 to 32,4 to 8,8 to 32
CC1S/C(=N\NC(=O)C(O)c2ccccc2)N(c2ccc(F)cc2)C1=O (stereo not shown) [4b],> 100,> 100,–,–,8,–,480,16 to 32,–,8 to 32,4 to 8,8 to 32
CC1S/C(=N\NC(=O)C(O)c2ccccc2)N(c2cccc(Cl)c2)C1=O (stereo not shown) [4c],> 100,> 100,–,–,8,–,120,16 to 32,–,8 to 32,4 to 8,8 to 32
CC1S/C(=N\NC(=O)C(O)c2ccccc2)N(c2ccc(Cl)cc2)C1=O (stereo not shown) [4d],–,–,–,–,8,–,–,4 to 16,–,8 to 32,4 to 8,8 to 32
CC1S/C(=N\NC(=O)C(O)c2ccccc2)N(c2cccc(Br)c2)C1=O (stereo not shown) [4e],> 100,–,–,–,32,–,560,4 to 16,68.2,4 to 8,4 to 8,4 to 8
CC1S/C(=N\NC(=O)C(O)c2ccccc2)N(c2ccc(Br)cc2)C1=O (stereo not shown) [4f],> 100,> 100,–,–,32,–,110,4 to 16,–,4 to 8,4 to 8,4 to 8
Cc1cccc(N2C(=O)C(C)S/C2=N\NC(=O)C(O)c2ccccc2)c1 (stereo not shown) [4g],> 100,> 100,–,–,32,–,500,4 to 16,–,4 to 8,4 to 8,4 to 8
Cc1ccc(N2C(=O)C(C)S/C2=N\NC(=O)C(O)c2ccccc2)cc1 (stereo not shown) [4h],> 100,> 100,–,16,32,–,90,8 to 32,–,8 to 32,8 to 32,–
COc1ccc(N2C(=O)C(C)S/C2=N\NC(=O)C(O)c2ccccc2)cc1 (stereo not shown) [4i],> 100,> 100,–,16,32,–,690,8 to 32,–,8 to 32,8 to 32,–
CC1S/C(=N\NC(=O)C(O)c2ccccc2)N(c2ccc([N+](=O)[O-])cc2)C1=O (stereo not shown) [4j],–,–,–,16,32,–,–,8 to 32,–,8 to 32,8 to 32,–
CC1S/C(=N\NC(=O)C(O)c2ccccc2)N(c2cccc(C(F)(F)F)c2)C1=O (stereo not shown) [4k],> 100,> 100,–,128,64,–,110,32 to 128,–,8 to 32,8 to 32,–

# From article PMC7215574, “Development of Thiazolidinones as Fungal Carbonic Anhydrase Inhibitors” (International Journal of Molecular Sciences, 2020)
